Tests used:
[1] = system: A549 Lung Tumor Cells Implanted SC in SCID Mice; test: tissue distribution, A549 tumor-bearing SCID mice; assay type: in vivo
Procedure: (§1) For the in vitro amino acid uptake studies, all cells can be grown to monolayer confluency in T-175 culture flasks [Corning, Corning, N.Y.] (approx. 1×10^8 cells/flask) in Dulbecco's Modified Eagle's Medium (DMEM) [Sigma, St. Louis, Mo.] in a humidified incubator (37° C., 5% CO2/95% air). Media are supplemented with 10% fetal calf serum [Hyclone, Logan, Utah], and antibiotics (10,000 U/ml penicillin and 10 mg/ml streptomycin) (Sigma, St. Louis, Mo.). For tissue culture passage, monolayer cells are detached by gentle trypsinization, resuspended in complete media, and split 1:10 into new T-flasks. Cultures are passaged weekly, and fed fresh media every 2 to 3 days. To initiate tumor growth in SCID mice, 1×10^6 cells are injected s.c. bilaterally into the flanks (inguinal region) of the recipient animals using a 1 ml syringe with a 27 gauge needle. Ex vivo experiments can be performed with animals containing tumors weighing between 500 mg and 1 g, as estimated by caliper measurement (tumor weight=(π/6)*abc, where a, b and c are the tumor length, width and height, respectively). The compounds of the invention are further evaluated for their tumor specificity and selectivity in tumor-bearing animal models. One can evaluate and compare the transport, accumulation and tissue distribution of each compound in these in vivo animal studies. Tissue distribution of the compounds is measured in SCID mice (average weight, 20-25 g) bearing human tumors as follows. The candidate radioligands (20 uCi in 0.4 ml 0.9% NaCl) are injected into the tail vein of tumor-bearing mice. […] Tissues (blood, heart, liver, lungs, kidneys, bone, thyroid, muscle, brain and tumor) are excised, rinsed in saline, and blotted dry. The tissues are weighed, placed into 12×75 mm glass vials, the radioactivity determined with a gamma counter, and the percent dose/gram calculated. Total activities of blood and muscle are calculated by assuming that they account for 7% and 40% of the total body mass, respectively.

[2] = system: MB468 Breast Tumor Cells Implanted SC in SCID Mice; test: tissue distribution, MB468 tumor-bearing SCID mice; assay type: in vivo
Procedure: as §1

% Dose/g blood ([1]; 15 Minutes): 3.39 % Dose/g | % Dose/g bone ([1]; 15 Minutes): 2.06 % Dose/g | % Dose/g brain ([1]; 15 Minutes): 0.26 % Dose/g | % Dose/g heart ([1]; 15 Minutes): 2.70 % Dose/g | % Dose/g kidney ([1]; 15 Minutes): 10.11 % Dose/g | % Dose/g liver ([1]; 15 Minutes): 3.15 % Dose/g | % Dose/g lung ([1]; 15 Minutes): 4.23 % Dose/g | % Dose/g muscle ([1]; 15 Minutes): 1.38 % Dose/g | % Dose/g pancreas ([1]; 15 Minutes): 48.45 % Dose/g | % Dose/g spleen ([1]; 15 Minutes): 7.90 % Dose/g | % Dose/g tumor ([1]; 15 Minutes): 5.11 % Dose/g | % Dose/g blood ([1]; 30 Minutes): 2.42 % Dose/g | % Dose/g bone ([1]; 30 Minutes): 1.63 % Dose/g | % Dose/g brain ([1]; 30 Minutes): 0.25 % Dose/g | % Dose/g heart ([1]; 30 Minutes): 2.23 % Dose/g | % Dose/g kidney ([1]; 30 Minutes): 5.47 % Dose/g | % Dose/g liver ([1]; 30 Minutes): 2.70 % Dose/g | % Dose/g lung ([1]; 30 Minutes): 3.03 % Dose/g | % Dose/g muscle ([1]; 30 Minutes): 1.43 % Dose/g | % Dose/g pancreas ([1]; 30 Minutes): 44.17 % Dose/g | % Dose/g spleen ([1]; 30 Minutes): 5.02 % Dose/g | % Dose/g tumor ([1]; 30 Minutes): 4.28 % Dose/g | % Dose/g blood ([1]; 60 Minutes): 1.08 % Dose/g | % Dose/g bone ([1]; 60 Minutes): 1.01 % Dose/g | % Dose/g brain ([1]; 60 Minutes): 0.16 % Dose/g | % Dose/g heart ([1]; 60 Minutes): 1.41 % Dose/g | % Dose/g kidney ([1]; 60 Minutes): 2.24 % Dose/g | % Dose/g liver ([1]; 60 Minutes): 1.46 % Dose/g | % Dose/g lung ([1]; 60 Minutes): 1.40 % Dose/g | % Dose/g muscle ([1]; 60 Minutes): 0.90 % Dose/g | % Dose/g pancreas ([1]; 60 Minutes): 20.63 % Dose/g | % Dose/g spleen ([1]; 60 Minutes): 2.85 % Dose/g | % Dose/g tumor ([1]; 60 Minutes): 3.04 % Dose/g | % Dose/g blood ([1]; 120 Minutes): 0.40 % Dose/g | % Dose/g bone ([1]; 120 Minutes): 0.62 % Dose/g | % Dose/g brain ([1]; 120 Minutes): 0.14 % Dose/g | % Dose/g heart ([1]; 120 Minutes): 0.85 % Dose/g | % Dose/g kidney ([1]; 120 Minutes): 1.02 % Dose/g | % Dose/g liver ([1]; 120 Minutes): 0.58 % Dose/g | % Dose/g lung ([1]; 120 Minutes): 0.56 % Dose/g | % Dose/g muscle ([1]; 120 Minutes): 0.77 % Dose/g | % Dose/g pancreas ([1]; 120 Minutes): 9.80 % Dose/g | % Dose/g spleen ([1]; 120 Minutes): 1.48 % Dose/g | % Dose/g tumor ([1]; 120 Minutes): 2.30 % Dose/g | % Dose/g blood ([2]; 15 Minutes): 3.26 % Dose/g | % Dose/g bone ([2]; 15 Minutes): 1.46 % Dose/g | % Dose/g brain ([2]; 15 Minutes): 0.23 % Dose/g | % Dose/g heart ([2]; 15 Minutes): 2.21 % Dose/g | % Dose/g kidney ([2]; 15 Minutes): 8.62 % Dose/g | % Dose/g liver ([2]; 15 Minutes): 2.51 % Dose/g | % Dose/g lung ([2]; 15 Minutes): 4.02 % Dose/g | % Dose/g muscle ([2]; 15 Minutes): 1.29 % Dose/g | % Dose/g pancreas ([2]; 15 Minutes): 36.85 % Dose/g | % Dose/g spleen ([2]; 15 Minutes): 4.47 % Dose/g | % Dose/g tumor ([2]; 15 Minutes): 2.71 % Dose/g | % Dose/g blood ([2]; 30 Minutes): 2.39 % Dose/g | % Dose/g bone ([2]; 30 Minutes): 1.31 % Dose/g | % Dose/g brain ([2]; 30 Minutes): 0.20 % Dose/g | % Dose/g heart ([2]; 30 Minutes): 1.89 % Dose/g | % Dose/g kidney ([2]; 30 Minutes): 6.49 % Dose/g | % Dose/g liver ([2]; 30 Minutes): 2.49 % Dose/g | % Dose/g lung ([2]; 30 Minutes): 2.98 % Dose/g | % Dose/g muscle ([2]; 30 Minutes): 1.12 % Dose/g | % Dose/g pancreas ([2]; 30 Minutes): 35.25 % Dose/g | % Dose/g spleen ([2]; 30 Minutes): 4.11 % Dose/g | % Dose/g tumor ([2]; 30 Minutes): 2.83 % Dose/g | % Dose/g blood ([2]; 60 Minutes): 1.00 % Dose/g | % Dose/g bone ([2]; 60 Minutes): 0.92 % Dose/g | % Dose/g brain ([2]; 60 Minutes): 0.15 % Dose/g | % Dose/g heart ([2]; 60 Minutes): 1.27 % Dose/g | % Dose/g kidney ([2]; 60 Minutes): 2.41 % Dose/g | % Dose/g liver ([2]; 60 Minutes): 1.29 % Dose/g | % Dose/g lung ([2]; 60 Minutes): 1.37 % Dose/g | % Dose/g muscle ([2]; 60 Minutes): 1.07 % Dose/g | % Dose/g pancreas ([2]; 60 Minutes): 19.20 % Dose/g | % Dose/g spleen ([2]; 60 Minutes): 3.05 % Dose/g | % Dose/g tumor ([2]; 60 Minutes): 2.19 % Dose/g | % Dose/g blood ([2]; 120 Minutes): 0.35 % Dose/g | % Dose/g bone ([2]; 120 Minutes): 0.71 % Dose/g | % Dose/g brain ([2]; 120 Minutes): 0.13 % Dose/g | % Dose/g heart ([2]; 120 Minutes): 0.69 % Dose/g | % Dose/g kidney ([2]; 120 Minutes): 0.89 % Dose/g | % Dose/g liver ([2]; 120 Minutes): 0.56 % Dose/g | % Dose/g lung ([2]; 120 Minutes): 0.51 % Dose/g | % Dose/g muscle ([2]; 120 Minutes): 0.66 % Dose/g | % Dose/g pancreas ([2]; 120 Minutes): 7.96 % Dose/g | % Dose/g spleen ([2]; 120 Minutes): 1.01 % Dose/g | % Dose/g tumor ([2]; 120 Minutes): 1.44 % Dose/g
SMILES: NC1(C(=O)O)CCC1[18F] [Anti-R,S 2-[^18F]FACBC, (R,S) anti-1-amino-2-[^18F]fluorocyclobutyl-1-carboxylic acid]

From patent US8834841B2, “Imaging agents” (priority 2005, dated 2014)
